Reference: patent US20060069132A1, “Azolecarboxamide herbicides” (priority 2004, published 2006)
Where two headings read alike, the source gives them in different places.

Key:
[1] = tested on: morningglory; assay: Test B pre-/postemergence herbicide test; type: in vivo, Ipomoea coccinea
Procedure, shortened: (§1)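 Species tested were Echinochloa crus-galli, Ipomoea coccinea, Xanthium strumarium and Oryza sativa, treated both before emergence and at the 1- to 4-leaf stage; rice and barnyardgrass were also tested under flooding at 2 leaves. Greenhouse incubation lasted 13–15 days before visual 0–100 scoring.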

[2] = tested on: ducksalad; assay: Test B flooded paddy test; type: in vivo, Heteranthera limosa; settings: 1000 g ai/ha, scale 0 to 100 (0 no effect, 100 complete control)
Procedure, shortened: (§2)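 Plants grow to 1- to 4-leaf stage (2–18 cm) for postemergence spraying, or to 2-leaf stage for the paddy test. Formulated compound is applied. Greenhouse holding lasts 13–15 days. Response is scored visually relative to controls, 0 no effect to 100 complete control; a dash means no result.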

[3] = tested on: wheat; assay: Test B postemergence herbicide test; type: in vivo, Triticum aestivum; parameters: key to Wheat plant response rating: 0 = no effect, 100 = complete control
Procedure, shortened: (§3)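 Formulated test chemicals went onto postemergence plants measuring 2 to 18 cm, at one to four leaves. For the paddy assay, species had reached two leaves. Scoring took place 13–15 days later by eye, relative to untreated plants, using 0 for no effect up to 100 for full control.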

[4] = tested on: large crabgrass; assay: Test B pre-/postemergence herbicide test; type: in vivo, Digitaria sanguinalis
Procedure, shortened: (§4)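 Plants compared with untreated controls 13–15 days post-treatment and given a visual 0–100 injury score. Applications: preemergence to seeds; postemergence at 1- to 4-leaf (2–18 cm); paddy species flooded, 2-leaf stage. Vehicle non-phytotoxic, surfactant included.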

[5] = tested on: small flower umbrella sedge; assay: Test B flooded paddy test; type: in vivo, Cyperus difformis; settings: 1000 g ai/ha, scale 0 to 100 (0 no effect, 100 complete control)
Procedure, shortened: as §2

[6] = tested on: blackgrass; assay: Test B postemergence herbicide test; type: in vivo, Alopecurus myosuroides
Procedure, shortened: as §2

[7] = tested on: corn; assay: Test B pre-/postemergence herbicide test; type: in vivo, Zea mays
Procedure, shortened: as §4

[8] = tested on: velvetleaf; assay: Test B pre-/postemergence herbicide test; type: in vivo, Abutilon theophrasti
Procedure, shortened: as §4

[9] = tested on: Surinam grass; assay: Test B pre-/postemergence herbicide test; type: in vivo, Urochloa decumbens
Procedure, shortened: as §4

[10] = tested on: pigweed; assay: Test B pre-/postemergence herbicide test; type: in vivo, Amaranthus retroflexus
Procedure, shortened: as §4

[11] = tested on: wild oat; assay: Test B postemergence herbicide test; type: in vivo, Avena fatua
Procedure, shortened: as §3

[12] = tested on: rice; assay: Test B flooded paddy test; type: in vivo, Oryza sativa; settings: 1000 g ai/ha, scale 0 to 100 (0 no effect, 100 complete control)
Procedure, shortened: as §3

[13] = tested on: barnyardgrass; assay: Test B flooded paddy test; type: in vivo, Echinochloa crus-galli; settings: 1000 g ai/ha, scale 0 to 100 (0 no effect, 100 complete control)
Procedure, shortened: as §2

[14] = tested on: giant foxtail; assay: Test B pre-/postemergence herbicide test; type: in vivo, Setaria faberi
Procedure, shortened: as §4

[15] = tested on: barnyardgrass; assay: Test B pre-/postemergence herbicide test; type: in vivo, Echinochloa crus-galli
Procedure, shortened: as §1

[16] = 125 g ai/ha, 0 is no effect, 100 is complete control, preemergence
[17] = 125 g ai/ha, 0 = no effect, 100 = complete control, preemergence
[18] = postemergence, 125 g ai/ha, visual rating, scale 0 (no effect) to 100 (complete control)
[19] = postemergence, 500 g ai/ha, visual rating, scale 0 (no effect) to 100 (complete control)
[20] = 500 g ai/ha, visual rating 0-100, 0 no effect, 100 complete control, preemergence

CCNC(=O)c1ccc(F)c(NC(=O)C2CN(C(C)(C)C)N=C2CC)c1 (stereo not shown) [Compound 336, 1-(1,1-dimethylethyl)-3-ethyl-N-[5-[(ethylamino)carbonyl]-2-fluorophenyl]-4,5-dihydro-1H-pyrazole-4-carboxamide]
Plant response rating (0 to 100 scale), Morningglory [1, 16]: 20 | pest or weed control at 125 g/ha ([1]; Ipomoea, post-emergence, 336 h, 125 g ai/ha, visual rating, scale 0 (no effect) to 100 (complete control), read-out: Morningglory plant response rating): 40% | pest or weed control at 500 g/ha ([1]; Ipomoea, post-emergence, 336 h, postemergence, 500 g ai/ha, scale 0 to 100, 0 is no effect, 100 is complete control, read-out: Morningglory plant response rating): 70% | pest or weed control at 500 g/ha ([1]; Ipomoea, pre-emergence, 336 h, 500 g ai/ha, visual rating, 0 = no effect, 100 = complete control, read-out: Plant response rating, Morningglory): 70% | pest or weed control at 1000 g/ha ([2]; Heteranthera limosa, 336 h, read-out: Ducksalad plant response rating): 90% | plant injury at 125 g/ha ([3]; Triticum aestivum, post-emergence, 336 h, 125 g ai/ha, visual rating, scale 0 (no effect) to 100 (complete control), read-out: Wheat plant response rating): 0% | plant injury at 500 g/ha ([3]; Triticum aestivum, post-emergence, 336 h, postemergence, 500 g ai/ha, scale 0 to 100, 0 is no effect, 100 is complete control, read-out: Wheat plant response rating): 10% | Plant response rating (0 to 100 scale), Crabgrass, Large [4, 16]: 90 | pest or weed control at 125 g/ha ([4]; Digitaria sanguinalis, post-emergence, 125 g ai/ha, visual rating, scale 0 (no effect) to 100 (complete control), read-out: Crabgrass, Large plant response rating): 20% | pest or weed control at 500 g/ha ([4]; Digitaria sanguinalis, post-emergence, postemergence, 500 g ai/ha, scale 0 to 100, 0 is no effect, 100 is complete control, read-out: Crabgrass, Large plant response rating): 50% | pest or weed control at 500 g/ha ([4]; Digitaria sanguinalis, pre-emergence, 500 g ai/ha, visual rating, 0 = no effect, 100 = complete control, read-out: Plant response rating, Crabgrass, Large): 100% | pest or weed control at 1000 g/ha ([5]; Cyperus difformis, 336 h, read-out: Sedge, Umbrella plant response rating): 80% | pest or weed control at 125 g/ha ([6]; Alopecurus myosuroides, post-emergence, 336 h, 125 g ai/ha, visual rating, scale 0 (no effect) to 100 (complete control), read-out: Blackgrass plant response rating): 10% | pest or weed control at 500 g/ha ([6]; Alopecurus myosuroides, post-emergence, 336 h, postemergence, 500 g ai/ha, scale 0 to 100, 0 is no effect, 100 is complete control, read-out: Blackgrass plant response rating): 20% | Plant response rating (0 to 100 scale), Corn [7, 16]: 50 | plant injury at 125 g/ha ([7]; Zea mays, post-emergence, 125 g ai/ha, visual rating, scale 0 (no effect) to 100 (complete control), read-out: Corn plant response rating): 10% | plant injury at 500 g/ha ([7]; Zea mays, post-emergence, postemergence, 500 g ai/ha, scale 0 to 100, 0 is no effect, 100 is complete control, read-out: Corn plant response rating): 20% | Corn plant response rating (crop injury, 0 = no effect, 100 = complete kill) at 500 g/ha ([7]; Zea mays, pre-emergence, 500 g ai/ha, visual rating, 0 = no effect, 100 = complete control): 100% | Plant response rating (0 to 100 scale), Velvetleaf [8, 16]: 30 | pest or weed control at 125 g/ha ([8]; Abutilon theophrasti, post-emergence, 336 h, 125 g ai/ha, visual rating, scale 0 (no effect) to 100 (complete control), read-out: Velvetleaf plant response rating): 20% | pest or weed control at 500 g/ha ([8]; Abutilon theophrasti, post-emergence, 336 h, postemergence, 500 g ai/ha, scale 0 to 100, 0 is no effect, 100 is complete control, read-out: Velvetleaf plant response rating): 30% | Plant response rating (0 to 100 scale), Surinam Grass [9, 16]: 90 | pest or weed control at 125 g/ha ([9]; Urochloa decumbens, post-emergence, 125 g ai/ha, visual rating, scale 0 (no effect) to 100 (complete control), read-out: Surinam Grass plant response rating): 20% | pest or weed control at 500 g/ha ([9]; Urochloa decumbens, post-emergence, postemergence, 500 g ai/ha, scale 0 to 100, 0 is no effect, 100 is complete control, read-out: Surinam Grass plant response rating): 20% | pest or weed control at 500 g/ha ([9]; Urochloa decumbens, pre-emergence, 500 g ai/ha, visual rating, 0 = no effect, 100 = complete control, read-out: Plant response rating, Surinam Grass): 100% | Plant response rating (0 to 100 scale), Pigweed [10, 16]: 100 | pest or weed control at 125 g/ha ([10]; Amaranthus retroflexus, post-emergence, 336 h, 125 g ai/ha, visual rating, scale 0 (no effect) to 100 (complete control), read-out: Pigweed plant response rating): 60% | pest or weed control at 500 g/ha ([10]; Amaranthus retroflexus, post-emergence, 336 h, postemergence, 500 g ai/ha, scale 0 to 100, 0 is no effect, 100 is complete control, read-out: Pigweed plant response rating): 70% | pest or weed control at 500 g/ha ([10]; Amaranthus retroflexus, pre-emergence, 336 h, 500 g ai/ha, visual rating, 0 = no effect, 100 = complete control, read-out: Plant response rating, Pigweed): 100% | pest or weed control at 125 g/ha ([11]; Avena fatua, post-emergence, 336 h, 125 g ai/ha, visual rating, scale 0 (no effect) to 100 (complete control), read-out: Oat, Wild plant response rating): 10% | pest or weed control at 500 g/ha ([11]; Avena fatua, post-emergence, 336 h, postemergence, 500 g ai/ha, scale 0 to 100, 0 is no effect, 100 is complete control, read-out: Oat, Wild plant response rating): 20% | plant injury at 1000 g/ha ([12]; Oryza sativa, 336 h, read-out: Rice plant response rating): 80% | pest or weed control at 1000 g/ha ([13]; Echinochloa crus-galli, 336 h, read-out: Barnyardgrass plant response rating): 90% | Plant response rating (0 to 100 scale), Foxtail, Giant [14, 16]: 60 | pest or weed control at 125 g/ha ([14]; Setaria faberi, post-emergence, 336 h, 125 g ai/ha, visual rating, scale 0 (no effect) to 100 (complete control), read-out: Foxtail, Giant plant response rating): 20% | pest or weed control at 500 g/ha ([14]; Setaria faberi, post-emergence, 336 h, postemergence, 500 g ai/ha, scale 0 to 100, 0 is no effect, 100 is complete control, read-out: Foxtail, Giant plant response rating): 40% | pest or weed control at 500 g/ha ([14]; Setaria faberi, pre-emergence, 336 h, 500 g ai/ha, visual rating, 0 = no effect, 100 = complete control, read-out: Plant response rating, Foxtail, Giant): 100% | Plant response rating (0 to 100 scale), Barnyardgrass [15, 16]: 100 | pest or weed control at 125 g/ha ([15]; Echinochloa crus-galli, post-emergence, 125 g ai/ha, visual rating, scale 0 (no effect) to 100 (complete control), read-out: Barnyardgrass plant response rating): 10% | pest or weed control at 500 g/ha ([15]; Echinochloa crus-galli, post-emergence, postemergence, 500 g ai/ha, scale 0 to 100, 0 is no effect, 100 is complete control, read-out: Barnyardgrass plant response rating): 30% | pest or weed control at 500 g/ha ([15]; Echinochloa crus-galli, pre-emergence, 500 g ai/ha, visual rating, 0 = no effect, 100 = complete control, read-out: Plant response rating, Barnyardgrass): 100%

CCc1nn(C(C)(C)C)cc1C(=O)Nc1cccc(C(C)=NO)c1 [Compound 188]
Morningglory plant response rating (0 to 100 scale) [1, 17]: 10 | Morningglory plant response rating [1, 18]: 20 | Morningglory plant response rating [1, 19]: 60 | Ducksalad plant response rating ([2]; visual rating, 13 to 15 days): 80 | Wheat plant response rating [3, 18]: 0 | Wheat plant response rating [3, 19]: 10 | Crabgrass, Large plant response rating (0 to 100 scale) [4, 17]: 100 | Plant response rating, Crabgrass, Large [4, 20]: 100 | Crabgrass, Large plant response rating [4, 18]: 10 | Crabgrass, Large plant response rating [4, 19]: 10 | Sedge, Umbrella plant response rating ([5]; visual rating, 13 to 15 days): 80 | Blackgrass plant response rating [6, 18]: 10 | Blackgrass plant response rating [6, 19]: 10 | Corn plant response rating (0 to 100 scale) [7, 17]: 10 | Plant response rating, Corn [7, 20]: 50 | Corn plant response rating [7, 18]: 10 | Corn plant response rating [7, 19]: 20 | Velvetleaf plant response rating (0 to 100 scale) [8, 17]: 70 | Plant response rating, Velvetleaf [8, 20]: 100 | Velvetleaf plant response rating [8, 18]: 10 | Velvetleaf plant response rating [8, 19]: 20 | Surinam Grass plant response rating (0 to 100 scale) [9, 17]: 30 | Plant response rating, Surinam Grass [9, 20]: 70 | Surinam Grass plant response rating [9, 18]: 10 | Surinam Grass plant response rating [9, 19]: 10 | Pigweed plant response rating (0 to 100 scale) [10, 17]: 40 | Plant response rating, Pigweed [10, 20]: 70 | Pigweed plant response rating [10, 18]: 50 | Pigweed plant response rating [10, 19]: 70 | Oat, Wild plant response rating [11, 18]: 20 | Oat, Wild plant response rating [11, 19]: 20 | Rice plant response rating ([12]; visual rating, 13 to 15 days): 70 | Barnyardgrass plant response rating ([13]; visual rating, 13 to 15 days): 60 | Foxtail, Giant plant response rating (0 to 100 scale) [14, 17]: 50 | Plant response rating, Foxtail, Giant [14, 20]: 100 | Foxtail, Giant plant response rating [14, 18]: 10 | Foxtail, Giant plant response rating [14, 19]: 10 | Barnyardgrass plant response rating (0 to 100 scale) [15, 17]: 80 | Plant response rating, Barnyardgrass [15, 20]: 100 | Barnyardgrass plant response rating [15, 18]: 10 | Barnyardgrass plant response rating [15, 19]: 20
